# PubChem BioAssay (NCI)
# Values joined by “and” are separate entries in the source; they are usually repeats but may differ in a detail not shown here. Equal values may be shown once.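 Grown in 96-well plates, cells were treated for 48 hours with each compound at five concentrations. Insufficient inhibition: endpoint recorded as highest concentration tested. GI50 marks 50% less growth. Definition used: TGI = concentration required for complete inhibition of growth.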
# What was measured:
# Assay in all cases: NCI-60 cell line screen, 48 h
# [1] = system: UO-31 renal
# [2] = system: RPMI-8226 leukemia
# [3] = system: IGROV1 ovarian
# [4] = system: PC-3 prostate
# [5] = system: MDA-MB-435
# [6] = system: MDA-MB-231 breast
# [7] = system: SW-620 colon
# [8] = system: K-562 leukemia
# [9] = system: EKVX NSCLC
# [10] = system: MDA-N
SMILES,TGI [1] [µM],TGI [2] [µM],TGI [3] [µM],TGI [4] [µM],TGI [5] [µM],TGI [6] [µM],TGI [7] [µM],TGI [8] [µM],TGI [9] [µM],TGI [10],GI50 [5] [µM],GI50 [8] [µM],GI50 [10] [µM]
C=C(CN(CC)CC)C1(c2ccccc2)CC2(CCCC2)C(=O)O1 (configuration not stated),> 100,> 100,> 100,> 100,> 100,> 100,> 100,> 100,> 100,> 100 µM,,,
O=C1Nc2cccc(Cl)c2/C1=C\c1c(-c2ccccc2)nc2n1CCS2,48.8,52.9,37.5,41.8,36.5,49,35.2,55.1,74.7,40.6 µM,,,
COc1cccc(NC(=O)CC(=O)n2nc(-c3ccccc3)c(N=Nc3ccc(Cl)cc3)c2-c2ccccc2)c1,30.8,> 100,> 96.4,> 100,> 100,> 100,> 100,> 78,92.8,> 100 µM,,,
COc1ccc(OC)c2c(C)ccnc12,74.3,> 100,> 66.4,> 100,> 100,> 100,> 85.6,> 100,> 100,> 100 µM,,,
S=C1C(=Nc2ccccc2)N(c2ccccc2)/C(=N\c2cccc[n+]2Cc2ccccc2)N1c1ccccc1,42.8,87.2,54.9,29.9,22.3,31.3,35.7,> 100,53.8,25 µM,,,
CC(OP(=O)(O)O)C(N)C(=O)O (configuration not stated),> 100,> 100,> 100,> 100,> 100,> 100,> 100,> 100,> 100,> 100 µM,,,
CCOC(=O)C1CCC(=O)N1C(=O)c1cccc(Cl)c1 (configuration not stated),> 100,> 100,> 100,> 100,> 100,> 100,> 100,> 100,> 100,> 100 µM,,,
Oc1ccc(Cl)cc1-c1cc(-c2ccccc2)nc(=S)[nH]1,68.9,> 100,> 100,> 100,> 100,85.8,> 100,> 100,> 100,> 100 µM,,,
CCOC(=O)c1cc2c3c(c(C(C)=O)c(OC)c2[nH]1)N(C(=O)CC)CC3,27,26.2,30,72.7,50.3,40.9,> 100,50.5,30.6,39.4 µM,,,
O=c1cc(-c2ccccc2)oc2c1ccc1[nH]c3ccccc3c(=O)c12,> 100,> 100,> 100,> 100,> 100,> 100,> 100,> 100,> 100,> 100 µM,,,
COc1ccc(-n2c(N)c(C#N)c(C#N)c2-c2ccco2)cc1,> 100,> 100,> 100,> 100,> 100,> 100,> 100,> 100,> 100,> 100 µM,,,
O=C1CCCCC/C1=C\c1cccc(F)c1,> 100,97.5,> 100,> 100,> 100,> 100,> 100,> 100,> 100,> 100 µM,,,
O=C1C=CC(=O)c2c(O)c(N3CCOCC3)c(Cl)c(O)c21,0.892,> 10,1.21,1.56,0.406,0.612,0.351,> 10,2.79,0.396 µM,,,
c1cc2cc3c4c5c(cc6ccc7cc8cc9c%10c8c8c7c6c5c8c5c%10c(c1C9N1CCOCCOCCOCCOCCOCC1)c2c45)C3 (configuration not stated),> 100,> 100,> 100,> 100,> 100,> 100,> 100,> 100,> 100,> 100 µM,,,
CC(=O)/C=C/c1ccccc1,> 100,> 100,64.9,> 100,68.3,> 100,> 100,> 100,> 100,91.9 µM,,,
COc1c(C)c(C/C=C(\C)CCCC(C)CCCC(C)CCCC(C)C)c(OC)c2ccccc12 (configuration not stated),> 100,> 100,> 100,> 100,> 100,> 100,> 100,> 100,> 100,> 100 µM,,,
O=C1C=CC2(O[C@H](C3CCCCC3)[C@@H](C3CCCCC3)O2)C(SC(=O)c2ccccc2)C1 (some centres not stated),4.31,2.22,9.1,7.43,5.29,5.11,16.8,4.73,12.7,7.2 µM,,,
O=C1c2ccccc2C2(c3ccc(F)cc3)NCCN12 (configuration not stated),> 100,> 100,> 100,> 100,> 100,> 100,> 100,> 100,> 100,> 100 µM,,,
O=C1C(N2CCN(CCOCCO)CC2)=C(Cl)C(=O)c2ncccc21,33.6,47.8,31.4,38.9,,34.2,50.7,34.4,35.1,3.76 µM and 35 µM,18.5,13.3,19.4
Cc1nc(C)c(N2CCN(CN)CC2)c(=O)[nH]1,> 100,> 100,> 100,> 100,> 100,> 100,> 100,> 100,> 100,> 100 µM,,,
Cc1nc2ccc(Cl)cc2c2c1CCO2,> 100,> 100,> 100,> 100,> 100,> 100,> 100,> 100,> 100,> 100 µM,,,
CCOC(=O)CCc1cn2cc(Br)nc(OC)c2n1,58.5,> 100,> 100,> 100,26,> 100,> 100,> 100,> 100,12.6 µM,,,
COc1cccc2c1OC1c3ccccc3OCC1(O)C2 (configuration not stated),> 100,> 100,> 100,> 100,> 100,> 100,> 100,> 100,> 100,> 100 µM,,,
Cc1ccc(S(=O)(=O)OCCC2CN(C(=O)OCc3ccccc3)C(C)(C)O2)cc1 (configuration not stated),15.4,32.4,> 100,50,22.5,> 100,> 100,> 100,> 100,> 100 µM,,,
NC1CCCCC1NCCNC1CCCCC1N (configuration not stated),> 100,> 100,> 100,> 100,> 100,> 100,> 100,> 100,> 100,> 100 µM,,,
Cc1cc(C)nc(NS(=O)(=O)c2ccc(NNc3c4ccccc4nc4c(C(=O)Nc5ccc(S(=O)(=O)Nc6cc(C)on6)cc5)cccc34)cc2)n1,> 100,> 100,> 100,> 100,> 100,94.4,> 100,87.2,65.7,> 100 µM,,,
Nc1ccc2c(=O)cc(-c3ccc(Br)s3)[nH]c2n1,> 23.2,> 100,> 100,> 100,1.39,> 94.8,> 100,> 100,> 100,1.29 µM,,,
C=C(Br)C[N+]12CN3CN(CN(C3)C1)C2,> 100,> 100,> 100,> 100,> 100,> 100,> 100,> 100,> 100,> 100 µM,,,
